Measurements as given in patent US7829666B2, “Maurotoxin, PI1 and HSTX1 derivatives” (Cellpep Pharma Inc., priority 2000, dated 2010).
Bridge positions count the residues as written; N and C are the ends. Square brackets hold non-standard residues; d marks the D form. Peptide text beside a SMILES is read from it. Abu = CC[C@H](N)C(=O)O

What was measured:
[1] = system: Ca2+-activated K+ channels, e.g. apamin-sensitive SK channels; settings: background statement; cited from earlier work
[2] = Lethality/toxicity in C57/BL6 mice, intracerebroventricular injection; assay type: in vivo; settings: mouse, in vivo
Excerpt: (§1) The MTX derivatives, as well as the MTX structurally homologous Pi1 or HsTx1 derivatives, of the invention are thus of potential therapeutic value for treating mammalian (including human) pathologies that are associated with a dysfunctioning of Ca^2+-activated and/or voltage-gated Kv channel subtypes. Such pathologies include immune and/or neurological diseases like multiple sclerosis, Parkinson's and Alzheimer's diseases, both thought to be associated with a dysfunctioning of Ca^2+-activated and/or voltage-gated K^+ channel subtype(s). The axonal impulse propagation ensures a continued transmission of nervous signals to remote targets. In a number of neuropathies, the nervous conduction is either slowed down or locked. This could be linked to alteration or functional changes of myelinated fibres (demyelinisation or alteration of the membrane properties at the Ranvier nodes). Among these neuropathies are multiple sclerosis (central nervous system; CNS) and Guillain-Barr syndrome (peripheral nervous system). It is now well-admitted that alteration of the axonal function is related to the presence of voltage-gated (Kv) K^+ channels (there is a widespread distribution of Kv1.1 and Kv1.2 channel subtypes in nerve terminals throughout the brain, whereas Kv channels—independent of their subtypes—are considered to be ubiquitous, including in the peripheral nervous system), and possibly Ca^2+-activated K^+ channels. In the previously cited neuropathies, Ca^2+-activated K^+ channels and Kv channels are either abnormally exposed in demyelinated or inflammatory lesions, or over-expressed. Therefore, selective K^+-channel blockers, including Ca^2+-activated K^+ channel-acting and/or Kv-acting MTX/Pi1/HsTx1-derived peptides such as [Q15]-MTX, Pi1 amidated at C-terminus, [Abu9, 19, 29, 34]-MIX, are of potential therapeutic value as symptomatic therapy of multiple sclerosis and related neuropathies, as well as for use as selective immuno-suppressant drugs by their blocking action on Ca^2+-activated and/or Kv channels. Further, it can be speculated that such peptide blockers, in the CNS, could enhance transmitter release in pathways affected by progressive neurodegenerative diseases such as Alzheimer's disease.

[3] = target: T1, mammalian voltage-gated Kv1.2 channel subtype (Homo sapiens, UniProt P16389); settings: background statement; picomolar or nanomolar concentration range; cited from earlier work
T1 sequence (P16389 whole entry): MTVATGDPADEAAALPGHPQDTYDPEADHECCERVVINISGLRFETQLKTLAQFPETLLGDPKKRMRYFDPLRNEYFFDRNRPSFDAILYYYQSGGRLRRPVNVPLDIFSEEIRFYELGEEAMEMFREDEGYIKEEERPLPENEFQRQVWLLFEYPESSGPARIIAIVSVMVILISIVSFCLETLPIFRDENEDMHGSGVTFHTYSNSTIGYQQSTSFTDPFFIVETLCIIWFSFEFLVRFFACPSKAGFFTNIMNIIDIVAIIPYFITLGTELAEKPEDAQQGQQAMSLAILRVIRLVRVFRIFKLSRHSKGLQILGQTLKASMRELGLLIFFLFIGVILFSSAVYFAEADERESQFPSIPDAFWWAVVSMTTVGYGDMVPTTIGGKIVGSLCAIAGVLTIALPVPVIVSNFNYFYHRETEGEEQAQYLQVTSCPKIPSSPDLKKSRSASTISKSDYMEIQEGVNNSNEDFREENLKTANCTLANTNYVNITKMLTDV

rat Kv1.3 channels = rat Kv1.3 channels (Rattus norvegicus, UniProt P15384); settings: background statement; cited from earlier work
Chain of rat Kv1.3 channels (P15384 whole entry): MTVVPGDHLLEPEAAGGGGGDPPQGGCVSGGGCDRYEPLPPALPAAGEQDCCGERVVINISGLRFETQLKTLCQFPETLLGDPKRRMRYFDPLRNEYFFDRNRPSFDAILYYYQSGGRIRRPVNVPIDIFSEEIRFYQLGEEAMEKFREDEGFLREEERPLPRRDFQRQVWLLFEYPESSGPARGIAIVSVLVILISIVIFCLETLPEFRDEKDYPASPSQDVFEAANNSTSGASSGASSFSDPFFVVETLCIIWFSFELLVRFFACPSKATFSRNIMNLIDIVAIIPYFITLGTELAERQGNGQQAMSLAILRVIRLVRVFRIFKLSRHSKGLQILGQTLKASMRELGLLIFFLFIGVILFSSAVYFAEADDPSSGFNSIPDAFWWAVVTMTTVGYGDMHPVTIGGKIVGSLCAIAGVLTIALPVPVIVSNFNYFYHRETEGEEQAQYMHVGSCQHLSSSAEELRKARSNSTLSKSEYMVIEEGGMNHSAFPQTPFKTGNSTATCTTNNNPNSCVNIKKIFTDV

C57/BL6 mice = assay: Lethality/toxicity in C57/BL6 mice, intracerebroventricular injection; assay type: in vivo
Excerpt: as §1

[4] = system: Ca2+-activated K+ channels; assay: Activity of MTX analog on Ca2+-activated K+ channels; assay type: cell-based
Excerpt: (§2) In one preferred derivative, the substitution of the MTX half-cystine residues (by amino butyrate derivatives) located at positions 9, 19, 29, and 34 (corresponding by numbers to C2, C4, C6, and C8) results in a two disulfide-bridged MTX analog, i.e. VSCTGSKDAbuYAPCRKQTGAbuPNAKCINKSAbuKCYGAbu-NH2 [SEQ. ID NO. 8], with novel, non-native arrangement of the half-cystine pairings (Cys3-Cys24 and Cys13-Cys31).

[5] = target: T1, mammalian voltage-gated Kv1.2 channel subtype; assay: Blocking activity on voltage-gated Kv1.2 channel; assay type: cell-based
Excerpt: as §2
An alternative approach to replacement of Cys residues with Abu is the replacement of one or two amino acid residues in natural MTX with other residues which prevent the folding of the molecule in such a way that the unconventional C1-C5, C2-C6, C3-C7 and C4-C8 disulfide bridge arrangement can occur. For instance, if neither of the residues at positions 32 and 33 is a Gly or Pro residue, the folding is altered in such a way that the MTX derivative adopts the conventional C1-C5, C2-C6, C3-C7 and C4-C8 of Pi1 and HsTx1. In particular, replacement of the Gly residue at position 33 by an Ala residue substitution, forming [A33]-MTX [SEQ. ID NO. 4], is effective. Substitution of Arg14 and/or Lys15 by Gln to give [Q14]-MTX [SEQ. ID NO. 5], [Q15]-MTX [SEQ. ID NO. 6] or [Q14,Q15]-MTX [SEQ. ID NO. 7] also induces half-cystine pairings between Cys3-Cys24, Cys9-Cys29, Cys13-Cys31 and Cys19-Cys34.

For HsTx1, which “activity on Ca2+-activated K+ channels, e.g. apamin-sensitive SK channels” value (from here on “activity … e.g. apamin-sensitive SK channels”) [1] is on record?
The value was “inactive”.

With CC[C@H](C)[C@@H]1NC(=O)[C@@H]2CSSC[C@H](NC(=O)[C@H](CO)NC(=O)[C@@H](N)C(C)C)C(=O)N[C@@H]([C@@H](C)O)C(=O)NCC(=O)N[C@@H](CO)C(=O)N[C@@H](CCCCN)C(=O)N[C@@H](CC(=O)O)C(=O)N[C@@H](CSSC[C@@H](C(=O)N[C@@H](CCCCN)C(=O)N[C@H]3CSSC[C@@H](C(N)=O)NC(=O)CNC(=O)[C@H](Cc4ccc(O)cc4)NC3=O)NC(=O)[C@H](CO)NC(=O)[C@H](CCCCN)NC(=O)[C@H](CC(N)=O)NC1=O)C(=O)N[C@@H](Cc1ccc(O)cc1)C(=O)N[C@@H](C)C(=O)N1CCC[C@H]1C(=O)N[C@H]1CSSC[C@H](NC(=O)CNC(=O)[C@H]([C@@H](C)O)NC(=O)[C@H](CCC(N)=O)NC(=O)[C@H](CCCCN)NC(=O)[C@H](CCCNC(=N)N)NC1=O)C(=O)N1CCC[C@H]1C(=O)N[C@@H](CC(N)=O)C(=O)N[C@@H](C)C(=O)N[C@@H](CCCCN)C(=O)N2 [MTX] (H-VSCTGSKDCYAPCRKQTGCPNAKCINKSCKCYGC-NH2; disulfide 3-24, 9-29, 13-19, 31-34) as the compound, how does the LD50 ([2]; other: intracerebroventricular) read?
The LD50 was 4 µg/kg.

And the “activity on voltage-gated K+ channel subtypes including Kv1.2” value [3]?
The value was “active”.

And the “activity … e.g. apamin-sensitive SK channels” value [1]?
Its value is “active”.

What about the “activity on rat Kv1.3 channels” value (rat Kv1.3 channels) of the same compound?
Its value is “active”.

For CC[C@H](C)[C@@H]1NC(=O)[C@@H]2CSSC[C@H](NC(=O)[C@H](CO)NC(=O)[C@@H](N)C(C)C)C(=O)N[C@@H]([C@@H](C)O)C(=O)NCC(=O)N[C@@H](CO)C(=O)N[C@@H](CCCCN)C(=O)N[C@@H](CC(=O)O)C(=O)N[C@H]3CSSC[C@H](NC(=O)[C@H](CO)NC(=O)[C@H](CCCCN)NC(=O)[C@H](CC(N)=O)NC1=O)C(=O)N[C@@H](CCCCN)C(=O)N[C@H]1CSSC[C@H](NC(=O)[C@@H]4CCCN4C(=O)[C@H](C)NC(=O)[C@H](Cc4ccc(O)cc4)NC3=O)C(=O)N[C@@H](CCCNC(=N)N)C(=O)N[C@@H](CCC(N)=O)C(=O)N[C@@H](CCC(N)=O)C(=O)N[C@@H]([C@@H](C)O)C(=O)NCC(=O)N[C@@H](CSSC[C@@H](C(N)=O)NC(=O)CNC(=O)[C@H](Cc3ccc(O)cc3)NC1=O)C(=O)N1CCC[C@H]1C(=O)N[C@@H](CC(N)=O)C(=O)N[C@@H](C)C(=O)N[C@@H](CCCCN)C(=O)N2 [[Q15]-MTX] (H-VSCTGSKDCYAPCRQQTGCPNAKCINKSCKCYGC-NH2; disulfide 3-24, 9-29, 13-31, 19-34), which lethality/toxicity (C57/BL6 mice; injected intracerebroventricularly at active concentrations) is on record?
The lethality/toxicity was “neither lethal nor toxic”.

With CC[C@H](C)[C@@H]1NC(=O)[C@@H]2CSSC[C@H](NC(=O)[C@H](CCCCN)NC(=O)[C@@H](NC(=O)[C@@H](N)CC(C)C)C(C)C)C(=O)N[C@@H](CCCNC(=N)N)C(=O)NCC(=O)N[C@@H]([C@@H](C)O)C(=O)N[C@@H](CO)C(=O)N[C@@H](CC(=O)O)C(=O)N[C@H]3CSSC[C@H](NC(=O)[C@H](CCSC)NC(=O)[C@H](CCCNC(=N)N)NC(=O)[C@H](CC(N)=O)NC1=O)C(=O)N[C@@H](CCCCN)C(=O)N[C@H]1CSSC[C@H](NC(=O)[C@@H]4CCCN4C(=O)[C@H](CCCNC(=N)N)NC(=O)CNC3=O)C(=O)N[C@@H](CCC(N)=O)C(=O)N[C@@H](CCC(N)=O)C(=O)N[C@@H](CCC(N)=O)C(=O)N[C@@H]([C@@H](C)O)C(=O)NCC(=O)N[C@@H](CSSC[C@@H](C(N)=O)NC(=O)CNC(=O)[C@H](Cc3ccc(O)cc3)NC1=O)C(=O)N1CCC[C@H]1C(=O)N[C@@H](CC(N)=O)C(=O)N[C@@H](CO)C(=O)N[C@@H](CCCCN)C(=O)N2 [Pi1] (H-LVKCRGTSDCGRPCQQQTGCPNSKCINRMCKCYGC-NH2; disulfide 4-25, 10-30, 14-32, 20-35; N-terminus and C-terminus assumed) as the compound, how does the LD50 [2] read?
Its LD50 is 10 µg/kg.

What about the “activity … e.g. apamin-sensitive SK channels” value [1] of the same compound?
Its value is “active”.

What about the “activity on rat Kv1.3 channels” value (rat Kv1.3 channels) of the same compound?
The value was “active on rat Kv1.3 channels contrary to synthetic Pi1”.

For CC[C@H](NC(=O)CNC(=O)[C@H](Cc1ccc(O)cc1)NC(=O)[C@@H]1CSSC[C@@H]2NC(=O)[C@@H]3CCCN3C(=O)[C@H](C)NC(=O)[C@H](Cc3ccc(O)cc3)NC(=O)[C@H](CC)NC(=O)[C@H](CC(=O)O)NC(=O)[C@H](CCCCN)NC(=O)[C@H](CO)NC(=O)CNC(=O)[C@H]([C@@H](C)O)NC(=O)[C@@H](NC(=O)[C@H](CO)NC(=O)[C@@H](N)C(C)C)CSSC[C@H](NC(=O)[C@H](CCCCN)NC(=O)[C@H](C)NC(=O)[C@H](CC(N)=O)NC(=O)[C@@H]3CCCN3C(=O)[C@H](CC)NC(=O)CNC(=O)[C@H]([C@@H](C)O)NC(=O)[C@H](CCC(N)=O)NC(=O)[C@H](CCCCN)NC(=O)[C@H](CCCNC(=N)N)NC2=O)C(=O)N[C@@H]([C@@H](C)CC)C(=O)N[C@@H](CC(N)=O)C(=O)N[C@@H](CCCCN)C(=O)N[C@@H](CO)C(=O)N[C@@H](CC)C(=O)N[C@@H](CCCCN)C(=O)N1)C(N)=O [[Abu9, 19, 29, 34]-MTX, VSCTGSKDAbuYAPCRKQTGAbuPNAKCINKSAbuKCYGAbu-NH2] (H-VSCTGSKD[Abu]YAPCRKQTG[Abu]PNAKCINKS[Abu]KCYG[Abu]-NH2; disulfide 3-24, 13-31), which “activity on Ca2+-activated K+ channels” value [4] is on record?
The value was “remains active”.

What about the lethality/toxicity (C57/BL6 mice; injected intracerebroventricularly, up to 1.25 mg/kg) of the same compound?
Its lethality/toxicity is “neither lethal nor toxic”.

What about the IC50 [5] of the same compound?
The IC50 was 0.042 µM.
